For series [1], the system named is breast cancer (MCF-7) cell line. Put plainly: Antiproliferative assay, MCF-7. In kind it is cell-based. The note with it: Homo sapiens, MCF7; read-out: Antiproliferative Activity IC50 ± SEM, MCF-7. The procedure: (§1) 4.2.1.2. Assay for antiproliferative effect
(§2) To explore the antiproliferative potential of compounds propidium iodide fluorescence assay was performed using different cell lines such as Panc-1 (pancreas cancer cell line), MCF-7 (breast cancer cell line), HT-29 (colon cancer cell line) and A-549 (epithelial cancer cell line), respectively.
(§3) To calculate the total nuclear DNA, a fluorescent dye (propidium iodide, PI) is used which can attach to the DNA, thus offering a quick and precise technique. PI cannot pass through the cell membrane and its signal intensity can be considered as directly proportional to quantity of cellular
(§4) DNA. Cells whose cell membranes are damaged or have changed permeability are counted as dead ones. The assay was performed by seeding the cells of different cell lines at a density of 3000-7500 cells/well (in200μl medium) in culture plates followed by incubation for 24h at 37 °C in humidified 5%CO2/95% air atmospheric conditions. The medium was removed; the compounds were added to the plates at 10 μM concentrations (in 0.1% DMSO) in triplicates, followed by incubation for 48h. DMSO (0.1%) was used as control. After incubation, medium was removed followed by the addition of PI (25 μl, 50μg/mL in water/medium) to each well of the plates. At - 80 °C, the plates were allowed to freeze for 24 h, followed by thawing at 25 °C. A fluorometer (Polar-Star BMG Tech) was used to record the readings at excitation and emission wavelengths of 530 and 620 nm for each well. The percentage cytotoxicity of compounds was calculated using […]
(§5) Where ATC= Absorbance of treated cells and AC= Absorbance of control. Erlotinib was used as positive control in the assay.

Series [2] has as its system pancreatic cancer (Panc-1) cell line. In words: Antiproliferative assay, Panc-1. In kind it is cell-based. Particulars: Homo sapiens, read-out: Antiproliferative Activity IC50 ± SEM, Panc-1. Here is the method: as §1, §2, §3, §4, §5
For series [3], the system named is four human cancer cell lines (A-549, MCF-7, Panc-1, HT-29). Put plainly: Antiproliferative assay, average over the four cancer cell lines (GI50). In kind it is cell-based. Particulars: average of the four cancer cell lines. The procedure: See Supplementary Materials.
as §1
To explore the antiproliferative potential of compounds propidium iodide fluorescence assay was performed using different cell lines such as Panc-1 (pancreas cancer cell line), MCF-7 (breast […]
as §3
DNA. Cells whose cell membranes are damaged or have changed permeability are counted as dead ones. The assay was performed by seeding the cells of different cell lines at a density of 3000- […]
The medium was removed; the compounds were added to the plates at 10 μM concentrations (in 0.1% DMSO) in triplicates, followed by incubation for 48h. DMSO (0.1%) was used as control. After incubation, medium was removed followed by the addition of PI (25 μl, 50μg/mL in water/medium) to each well of the plates. At - 80 °C, the plates were allowed to freeze for 24 h, followed by thawing at 25 °C. A fluorometer (Polar-Star BMG Tech) was used to record the readings at excitation and emission wavelengths of 530 and 620 nm for each well. The percentage cytotoxicity of compounds was calculated using […]
Where ATC= Absorbance of treated cells and AC= Absorbance of control. […]
positive control in the assay.

A further series has as its system Bcl-2. Put plainly: Bcl-2 level assay in A-549 cells. In kind it is cell-based, human. The note with it: for Bcl-2 Conc: control 5; for Bcl-2 Fold Reduction: vs control. Here is the method: Compounds Va and Vg were explored further for their impact on caspase-8, Bax, and Bacl-2 levels against a human epithelial cancer cell line (A-549) using doxorubicin as a reference. See Supplementary Materials. […]
4.2.8. Bcl-2inhibition assay
Mix all reagents thoroughly without foaming before use. Wash the microwells twice with approximately 300 μL Wash Buffer per well with thorough aspiration of microwell contents between washes. Take caution not to scratch the surface of the microwells. After the last wash, empty the wells and tap microwell strips on absorbent pad or paper towel to remove excess Wash Buffer. Use the microwell strips immediately after washing or place upside down on a wet absorbent paper for not longer than 15 minutes. […] Add 100 μL of Sample […]
Diluent in duplicate to all standard wells and to the blank wells. Prepare standard (1:2 dilution) in duplicate ranging from 32 ng/mL to 0.5 ng/mL. Add 100 μL of Sample Diluent, in duplicate, to the blank wells. Add 80 μL of Sample Diluent, in duplicate, to the sample wells. Add 20 μL of each Sample, in duplicate, to the designated wells. Add 50 μL of diluted biotin-conjugate to all wells, including the blank wells. Cover with a plate cover and incubate at room temperature, on a microplate shaker at 100 rpm if available, for 2 hours. Remove plate cover and empty the wells.
Wash microwell strips 3 times as described in step 2. Add 100 μL of diluted Streptavidin-HRP to all wells, including the blank wells. Cover with a plate cover and incubate at room temperature, on a microplate shaker at 100 rpm if available, for 1 hour. Remove plate cover and empty the wells.
Wash microwell strips 3 times as described in step 2. Proceed to the next step. Pipette 100 μl of mixed TMB Substrate Solution to all wells, including the blanks. Incubate the microwell strips at room temperature (18° to 25°C) for about 15 minutes, if available on a rotator set at 100 rpm.
Avoid direct exposure to intense light. The point, at which the substrate reaction is stopped, is often determined by the ELISA reader. Many ELISA readers record absorbance only up to 2.0
O.D. Therefore, the color development within individual microwells must be watched by the person running the assay and the substrate reaction stopped before positive wells are no longer properly detectable. Stop the enzyme reaction by quickly pipetting 100 μL of Stop Solution into each well, including the blank wells. It is important that the Stop Solution is spread quickly and uniformly throughout the microwells to completely inactivate the enzyme. Results must be read immediately after the Stop Solution is added or within one hour if the microwell strips are stored at 2 - 8°C in the dark. Read absorbance of each microwell on a spectrophotometer using 450 nm as the primary wavelength.

The next series deals with VEGFR-2 (Homo sapiens, UniProt P35968). In words: VEGFR-2 inhibitory assay.
VEGFR-2, sequence (P35968 20-1356): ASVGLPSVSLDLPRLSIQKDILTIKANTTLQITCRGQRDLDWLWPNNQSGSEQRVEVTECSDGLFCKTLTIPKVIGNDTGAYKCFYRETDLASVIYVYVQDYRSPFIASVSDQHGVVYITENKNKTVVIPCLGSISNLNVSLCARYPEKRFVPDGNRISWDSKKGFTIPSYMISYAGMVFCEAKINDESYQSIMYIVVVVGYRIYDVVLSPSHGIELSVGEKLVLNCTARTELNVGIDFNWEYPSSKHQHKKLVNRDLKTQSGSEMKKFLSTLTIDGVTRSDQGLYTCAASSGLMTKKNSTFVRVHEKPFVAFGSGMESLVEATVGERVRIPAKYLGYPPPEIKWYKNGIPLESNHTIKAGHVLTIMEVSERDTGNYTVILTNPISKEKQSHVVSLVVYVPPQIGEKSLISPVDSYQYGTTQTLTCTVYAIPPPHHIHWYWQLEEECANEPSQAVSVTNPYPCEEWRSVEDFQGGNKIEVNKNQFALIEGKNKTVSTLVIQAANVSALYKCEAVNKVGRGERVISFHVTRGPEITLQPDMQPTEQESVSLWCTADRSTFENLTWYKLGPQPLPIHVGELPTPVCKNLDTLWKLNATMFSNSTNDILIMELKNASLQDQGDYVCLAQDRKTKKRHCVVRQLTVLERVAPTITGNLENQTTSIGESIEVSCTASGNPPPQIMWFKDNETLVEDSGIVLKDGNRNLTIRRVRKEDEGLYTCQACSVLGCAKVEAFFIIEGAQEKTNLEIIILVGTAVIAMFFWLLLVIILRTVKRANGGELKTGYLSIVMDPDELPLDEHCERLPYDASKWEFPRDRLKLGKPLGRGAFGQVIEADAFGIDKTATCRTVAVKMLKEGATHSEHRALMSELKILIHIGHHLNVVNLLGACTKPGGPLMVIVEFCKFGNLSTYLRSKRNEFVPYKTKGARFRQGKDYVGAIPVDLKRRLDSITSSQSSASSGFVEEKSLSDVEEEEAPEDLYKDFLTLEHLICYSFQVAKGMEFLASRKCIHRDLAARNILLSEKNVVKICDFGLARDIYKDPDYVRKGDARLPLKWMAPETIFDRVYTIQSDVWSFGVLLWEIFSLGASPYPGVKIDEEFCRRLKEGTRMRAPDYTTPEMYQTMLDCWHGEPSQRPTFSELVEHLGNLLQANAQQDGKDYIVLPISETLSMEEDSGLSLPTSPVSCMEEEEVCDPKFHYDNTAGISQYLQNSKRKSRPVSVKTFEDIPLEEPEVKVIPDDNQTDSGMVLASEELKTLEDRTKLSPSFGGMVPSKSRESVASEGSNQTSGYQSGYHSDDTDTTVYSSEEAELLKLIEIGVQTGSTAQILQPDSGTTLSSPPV
A further series deals with BRAF^V600E (Mus musculus, UniProt P28028, V585E). Put plainly: BRAF^V600E inhibitory assay.
BRAF^V600E, sequence (P28028 whole entry V585E): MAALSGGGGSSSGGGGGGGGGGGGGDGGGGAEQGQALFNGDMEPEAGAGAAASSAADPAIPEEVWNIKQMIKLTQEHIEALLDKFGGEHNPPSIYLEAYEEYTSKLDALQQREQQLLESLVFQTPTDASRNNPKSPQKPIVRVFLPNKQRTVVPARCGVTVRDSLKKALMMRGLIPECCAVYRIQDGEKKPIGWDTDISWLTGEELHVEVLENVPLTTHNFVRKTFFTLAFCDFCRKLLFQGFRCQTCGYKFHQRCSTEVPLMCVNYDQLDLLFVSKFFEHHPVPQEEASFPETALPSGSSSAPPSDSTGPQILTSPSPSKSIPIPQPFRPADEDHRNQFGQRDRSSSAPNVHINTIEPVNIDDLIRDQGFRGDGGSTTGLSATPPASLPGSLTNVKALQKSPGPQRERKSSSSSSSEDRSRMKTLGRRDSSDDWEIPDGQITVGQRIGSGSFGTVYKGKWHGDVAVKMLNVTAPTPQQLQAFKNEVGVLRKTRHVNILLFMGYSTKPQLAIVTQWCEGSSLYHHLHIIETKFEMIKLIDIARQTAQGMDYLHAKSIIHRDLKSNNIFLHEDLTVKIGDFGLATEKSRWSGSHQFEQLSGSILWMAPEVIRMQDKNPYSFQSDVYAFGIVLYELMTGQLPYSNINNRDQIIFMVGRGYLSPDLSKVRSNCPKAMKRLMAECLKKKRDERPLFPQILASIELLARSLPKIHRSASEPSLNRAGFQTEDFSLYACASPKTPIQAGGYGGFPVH

Description for BRAF^V600E: BRAFV600E inhibitory assay
V600E mutant BRAF kinase assay was performed to investigate the activity of tested compounds against BRAF. Mouse full-length GST-tagged BRAFV600E (7.5 ng, Invitrogen, PV3849) was pre-incubated with drug (1 µL) and assay dilution buffer (4 µL) for 60 min at 25 °C. In assay dilution buffer, a solution (5 µL) containing MgCl2 (30 mM), ATP (200 µM), recombinant human full length (200 ng) and N-terminal His-tagged MEK1 (Invitrogen) was added to start the assay, subsequent to incubation for 25 min at 25 °C. The assay was stopped using 5X protein denaturing buffer (LDS) solution (5 µL). To further denature the protein, heat (70° C) was applied for 5 min.
10 µL of each reaction was loaded into the precast plates and electrophoresis was allowed to proceed. After completion of electrophoresis, the front part of the precast gel plate (holding hot ATP) was cut and afterwards cast-off. The dried gel was developed using a phosphor screen.
Description for VEGFR-2: Prepare all the solutions using autoclaved, deionized water and analytical grade reagents.
and store all the reagents at room temperature (unless indicated otherwise).
solution, add 5 mL ultra-pure water; 1×Kinase Assay Buffer: add 25 mL HEPES solution (1 M),
water, adjust pH to 7.5 and constant volume to 500 mL using ultrapure water; 4×Stop solution (40
mM): Mix 0.8 mL of the foregoing EDTA solution, 1 mL 10×Detection Buffer and 8.2 mL ultra-
pure water; 1×Detection Buffer: Mix 1 mL 10×Detection Buffer with 9 mL water; 4×VEGFR
μM) was added to 624 μL 1×Kinase Assay Buffer and mixed; 4×ULight™-labeled JAK1
concentration 5 μM) was added to 576 μL 1×Kinase Assay Buffer and mixed; 4×ATP Solution
2×substrate/ATP Mix: 560 μL foregoing 4×ULight™-labeled JAK1 and 560 μL 4×ATP solution
and mixed (prepared before use). The assays used an ULight-labeled peptide substrate and a
Europium-W1024-labeled antiphosphotyrosine antibody. The VEGFR-2 was purchased from
Carna Biosciences, Inc. (New York, USA). The 384-well plates were obtained from PerkinElmer.
5 μL 2×VEGFR-2 kinase solution (0.5 nM)
was added to 384-well plates homogeneous mixing and pre-reaction at room temperature for 30 min. Next, 2.5 μL 4×Ultra ULightTM-JAK-1(Tyr1023) Peptide (200 nM)/ATP (40 μM) was added to the corresponding wells of a 384-well plate. Negative control: 2.5 μL/well 4×substrate/ATP mixture and 7.5 μL 1×kinase assay buffer in 384-well plate well. Positive control:
μL/well 2×VEGFR-2 kinase solution was added to the 384-well plate, The final concentration of DMSO in the mixing system was 4%. After incubation at room temperature and dark for 60 min, 5 μL 4×stop solution was added to corresponding wells to react for 5 min and then 5 μL 4×detection mix was added to the corresponding wells of a 384-well plate. The mixture was centrifugally mixed and stayed for 60 min at room temperature for color development. The plate was read using a Envision plate reader. The inhibition rate (%) = (positive well reading-compound well reading)/(positive well reading-negative well reading)×100. The corresponding IC50 values were calculated using GraphPad Prism 5.0.

In general, IC50 refers to the concentration needed to halve the response being measured. The term GI50 denotes the concentration at which growth is held to half of that of the control. A word on the melting point: it is the temperature of the solid-liquid transition. `O=C(NCC(c1ccccc1)c1c(-c2ccccc2)[nH]c2ccccc12)c1cc2cc(Cl)ccc2[nH]1` (stereo not shown) [Compound Va, 5-Chloro-N-(2-phenyl-2-(2-phenyl-1H-indol-3-yl)ethyl)-1H-indole-2-carboxamide] displayed a melting point of 112 to 114 °C. Besides, the concentration for half-maximal inhibition (IC50) in series [1] was found to be 28 ± 2 nM. Besides, the half-inhibitory concentration (IC50) in series [2] was 26 ± 2 nM. This compound showed a 50% growth inhibitory concentration (GI50) in series [3] of 26 nM. Further, in the series with Bcl-2, the “Bcl-2 Conc” value is listed as 0.75 ng/mL and the “Bcl-2 Fold Reduction” value is recorded as 7. At VEGFR-2, it took 2.15 ± 0.2 nM to reach half-maximal inhibition (IC50). Also, the IC50 at BRAF^V600E came out at 77 ± 6 nM.
The compound `CO/C=C/c1c(C(=O)NCC(c2ccccc2)c2c(-c3ccccc3)[nH]c3ccccc23)[nH]c2ccc(Cl)cc12` (stereo not shown) [Compound Vg, (E)-5-Chloro-3-(2-methoxyvinyl)-N-(2-phenyl-2-(2-phenyl-1H-indol-3-yl)ethyl)-1H-indole-2-carboxamide] gave a melting point of 140 to 142 °C. In addition, the IC50 in series [1] is 33 ± 3 nM. Also, the 50% inhibitory concentration (IC50) in series [2] was found to be 30 ± 2 nM. For the same compound, it took 31 nM to inhibit growth in series [3] by half (GI50). In the series with Bcl-2, the “Bcl-2 Conc” value amounted to 0.85 ng/mL and the “Bcl-2 Fold Reduction” value is on record as 6. The half-inhibitory concentration (IC50) on VEGFR-2 was 1.6 ± 0.1 nM. Besides, at BRAF^V600E, it took 83 ± 6 nM to reach half-maximal inhibition (IC50).
